Source: patent publication US6338963B1, “Use of carbon monoxide dependent guanylyl cyclase modifiers to stimulate neuritogenesis” (NeoTherapeutics, Inc., priority 1994, dated 2002)

Experiments:
[1] = test system: rat cultured astrocytes; test: Release of radioactively labeled adenine-based purines from rat cultured astrocytes; assay type: cell-based; details: 300 μM, 1 hour
Method: The experiments were carried out on cultured astrocytes of rat hippocampus at the fourth day in vitro (DIV), obtained from primary cultures replated in 35 mm Petri dishes ([…] cells/dish) and preloaded with [^3H]-adenosine (5×10^−8 M for a specific activity of 20.0 Ci/mM) for 30 minutes at 37° C.
The effect of AIT-082 on the proportional release of radioactively labeled adenine nucleosides and nucleotides from rat cultured astrocytes is shown in FIGS. 29A and 29B. Culture medium collected during the first hour of the release was analyzed by high performance liquid chromatography (HPLC) and the radioactivity associated with the different adenine compounds was measured and expressed as a percentage of the total radioactivity released. The results are shown for ATP, ADP, and AMP in FIG. 29A, and for adenosine, inosine, and hypoxanthine in FIG. 29B.

[2] = test system: bFGF; test: Summary of effects on growth factor mRNA and protein (Table R): bFGF; design: key: ± = mRNA; + = protein; nt = not tested
Excerpt: The constellation of effects of AIT-082 on production of mRNA encoding growth factors and on production of growth factor proteins is shown in Table R. The results summarized in […] show both transcriptional and translational effects on growth factors that are in the categories of neurotrophins, pleiotrophins, members of the S100 family of EF hand calcium binding proteins, and members of the TGFβ superfamily. As indicated, effects have been shown at both the mRNA (transcriptional) and protein (translational) levels.

[3] = test system: C57BL/6 mice; test: Win-shift duration of memory trace, C57BL/6 mice; assay type: in vivo; details: for Correct (Mean score ± S.E.) / No. above chance/Total #: AIT-082 30 mg/kg
Method: To determine the duration of the memory trace, subjects were administered drug or saline and 30 minutes (PHY) or 1 hour (AIT-082 or THA) later they were given a single reference run with the milk reward in both goal boxes. After the indicated inter-trial delay, subjects were returned to the start box and given the first test trial with the milk reward only in the goal box opposite to the one entered on the previous correct trial. The subjects were given 10 trials with the reward alternating only after correct responses.
Previous work has established that normal adult Swiss Webster mice have a memory trace duration of 60 seconds in the win-shift paradigm which may be increased by the administration of AIT-082.

[4] = test system: NGF; test: Two-site ELISA of growth factor protein in rat brain and spinal cord: NGF; assay type: in vivo, F344 rats
Method: Adult female F344 rats were given either AIT-082 (doses: 30 mg/kg/day or a higher dose of 30 mg/ml (˜3,000 mg/kg/day); n=6 rats per group) in their drinking water, or water alone, as a vehicle for control. The duration of the study was seven days, at which time the rats were anesthesized and perfused with ice-cold saline. The brains of the rats were rapidly removed. The brains were placed on a chilled glass plate and dissected into the following regions: basal forebrain, frontal cortex, parietal cortex, cerebellum, spinal cord, and hippocampal formation. Tissues were stored at −70° C. until assayed in a specific two-site ELISA for either NGF, BDNF, NT-3, or GNDF.
The results are shown in FIGS. 45 (BDNF), 46 (NT-3), 47 (GDNF) and 48 (NGF). For the results shown in FIGS. 45-48, animals were given only water (VEH, n=6) or water with AIT-082 at either 30 mg/kg/day (n=6) or 30 mg/ml (n=6) for seven days. The levels of each growth factor were determined in the frontal cortex (F. Cor.), parietal cortex (P.Cor.), hippocampal formation (Hipp.), basal forebrain (B.F.), cerebellum (Cer.), or spinal cord (Cord) using a specific two-site ELISA for each growth factor.
Adult female rats were given AIT-082 (30 mg/kg/day) in their drinking water or drinking water alone (n=6 for each group) for seven days prior to receiving a bilateral fimbria fornix transection (FFT).
The results are shown in FIGS. 49 (BDNF), 50 (NT-3), 51 (GDNF) and 52 (NGF). […] Levels of the growth factor were determined in frontal cortex (F.Cor.), parietal cortex (P.Cor.), hippocampal formation (Hipp.), basal forebrain (B.F.), cerebellum (Cer.), or spinal cord (Cord) using a specific two-site ELISA for each growth factor. […]
Results are shown in FIGS. 53 (BDNF), 54 (NT3), 55 (GDNF), and 56 (NGF). […] Levels of each growth factor were determined in frontal cortex (F.Cor.), parietal cortex (P. Cor.), hippocampal formation (Hipp.), basal forebrain (B.F.), cerebellum (Cer.) or spinal cord (Cord) using a specific two-site ELISA.

[5] = test system: rats; details: oral or intraperitoneal route, preliminary

Structure (SMILES)	ADP, proportional release [1]	Adenosine, proportional release [1]	Inosine, proportional release [1]	bFGF, effect on mRNA/protein production ([2]; Aged Brain)	bFGF, effect on mRNA/protein production ([2]; Lesioned Brain)	duration of the memory trace ([3]; AIT-082 30 mg/kg i.p., untreated 120 seconds)	Correct (Mean score ± S.E.) ([3]; inter-trial interval 180 sec)	No. above chance/Total # ([3]; inter-trial interval 180 sec)	Correct (Mean score ± S.E.) ([3]; inter-trial interval 210 sec)	No. above chance/Total # ([3]; inter-trial interval 210 sec)	Correct (Mean score ± S.E.) ([3]; inter-trial interval 240 sec)	No. above chance/Total # ([3]; inter-trial interval 240 sec)	Correct (Mean score ± S.E.) ([3]; inter-trial interval 270 sec)	No. above chance/Total # ([3]; inter-trial interval 270 sec)	NGF protein levels ([4]; FFT-lesioned rats, 30 mg/kg/day)	NGF protein levels ([4]; aged rats, 30 mg/kg/day 30 days, any brain region)	NGF protein levels ([4]; intact adult rats)	LD50 [5] [mg/kg]
Nc1nc2c(ncn2[C@@H]2O[C@H](CO)[C@@H](O)[C@H]2O)c(=O)[nH]1 [guanosine]	(6.5 ± 0.7) percentage of the total [^3H]-purines released	(11.9 ± 0.8) percentage of the total [^3H]-purines released	(36.0 ± 3.9) percentage of the total [^3H]-purines released	–	–	–	–	–	–	–	–	–	–	–	–	–	–	–
O=C(CCn1cnc2c(=O)[nH]cnc21)Nc1ccc(C(=O)O)cc1 [AIT-082, N-4-carboxyphenyl-3-(6-oxohydropurin-9-yl)propanamide]	–	–	–	±	±	over 210 seconds	70 ± 15	4/6	78 ± 15	4/6	50 ± 6	0/6	50 ± 6	0/6	No significant increases	no effect	No changes	> 3000
